Read-outs that look alike come from different tables or passages of the source. Where a SMILES comes first, the peptide text is derived from it. [ ]: non-standard residue; d: D form. The star is where a group is joined. Sta = CC(C)C[C@H](N)[C@@H](O)CC(=O)O; Isovaleryl = CC(C)CC(=O)*
Key:
[1] = test system: amidase activity which catalyzes both the hydrolysis and synthesis of arachidonylethanolamide (anandamide); settings: cited from earlier work
rats = test: effect on spontaneous behavior of rats after ip injection (induction of sleep); format: in vivo, rat; settings: for sleep-inducing pharmacological effect compared with cis-9,10-octadecenoamide: rats, ip
Description: Synthetic cis-9,10-octadecenoamide was injected (ip) into rats in order to test its effect on spontaneous behavior at different doses: 1 (n=2), 2 (n=2), 5 (n=7), 10 (n=10), 20 (n=2), and 50 (n=2) mg, where n = number of rats tested. […] However, at a threshold of 5 mg and above there was a marked effect consisting of an induction of long-lasting motor quiescence associated with eyes closed, sedated behavior characteristic of normal sleep. Also as with normal sleep, the rats still responded to auditory stimuli with orienting reflex and sustained attention toward the source of stimulation. In addition, motor behavior was impaired. The latency to behavioral sedation following administration was about 4 minutes and subjects were normally active again after 1 hour (5 mg), 2 hour (10 mg), or 2.5 hour (20 mg and 50 mg).
We have compared cis-9,10-octadecenoamide to vehicle and the synthetic analogs listed in FIG. 1 to estimate the structural specificity of its sleep-inducing potential. […] More particularly, male Sprague-Dawley rats (300 g at the time of surgery) were implanted under halothane anesthesia (2-3%) with a standard set of electrodes for sleep recordings. This included two screw electrodes placed in the parietal bone over the hippocampus to record the subjects electroencephalogram (EEG) and two wire electrodes inserted in the neck musculature to record postural tone through electromyographic activity (EMG). Rats were housed individually with at libitum access to food and water. The dark-light cycle was controlled (12:12, lights on a 10:00 p.m.). One week after the surgery, rats were habituated to the recording conditions for at least three days. Upon the completion of the habituation period, rats received 2 milliliter (ip) of either: vehicle (5% ethanol/saline solution), cis-9,10-octadecenoamide (10 mg), or oleic acid (10 mg). […] Sleep recordings were visually scored and four stages were determined: wakefulness, slow-wave-sleep 1 (SWS1), slow-wave-sleep 2 (SWS2), and rapid eye movement (REM) sleep.

[2] = target: T1, recombinant expressed rat FAAH (Rattus norvegicus, UniProt P97612); test: FAAH hydrolysis assays with 14C-labeled fatty acid amide substrates (TLC, scintillation counting); format: biochemical; settings: for Rate of Hydrolysis: 35 μg transfected COS-7 cell protein, 5 minutes, 37° C.
T1 construct: expressed in transfected cells; host or cells: COS-7 cells, transient, pcDNA3; dounce-homogenised cell extract
T1 sequence (P97612 1-579): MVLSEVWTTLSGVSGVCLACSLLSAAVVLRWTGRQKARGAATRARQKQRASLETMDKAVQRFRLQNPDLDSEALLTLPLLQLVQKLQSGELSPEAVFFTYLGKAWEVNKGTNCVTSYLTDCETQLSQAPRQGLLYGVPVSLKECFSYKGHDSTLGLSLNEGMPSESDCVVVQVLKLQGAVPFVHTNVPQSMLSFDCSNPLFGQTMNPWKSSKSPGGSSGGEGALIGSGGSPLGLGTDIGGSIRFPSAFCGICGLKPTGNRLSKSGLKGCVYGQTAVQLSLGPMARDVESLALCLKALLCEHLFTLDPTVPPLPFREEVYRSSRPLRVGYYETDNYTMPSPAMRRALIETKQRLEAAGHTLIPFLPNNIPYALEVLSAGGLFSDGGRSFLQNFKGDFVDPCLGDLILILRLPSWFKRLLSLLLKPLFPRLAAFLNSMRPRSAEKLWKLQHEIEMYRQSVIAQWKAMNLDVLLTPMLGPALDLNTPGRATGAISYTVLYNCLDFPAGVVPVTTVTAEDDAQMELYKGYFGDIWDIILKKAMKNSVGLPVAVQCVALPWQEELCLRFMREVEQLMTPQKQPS
Description: Therefore, COS-7 cells transfected with the rat FAAH cDNA were assayed for anandamide hydrolase activity. To assess the enzymatic activity of the expressed recombinant fatty acid amide hydrolases of this invention on labeled anandamide, the following enzymatic assay was performed. ^14C-anandamide was synthesized as follows: 12.5 μCi (specific activity of 50 μCi/μM) of ^14C arachidonic acid (Moravek Biochemicals) was dissolved in 100 μl CH2Cl2, cooled to 0° C., and treated with excess oxalyl chloride. The reaction mixture was stirred at 25° C. for 6 hours, after which time the solvent was evaporated. The remaining residue was cooled to 0° C., treated with a large excess of ethanolamine, and stirred at 25° C. for 15 minutes. The reaction mixture was then partitioned between ethyl acetate and 2 M HCl, and the organic layer was washed with water and then evaporated to dryness. The resulting ^14C-anandamide was diluted with unlabeled anandamide to a final specific activity of 5 μCi/μM in ethanol. Approximately 1 μCi of ^14C-anandamide and 20 μl of dounce homogenized COS-7 cell extract were used for each anandamide hydrolase assay as detailed above for the oleamide hydrolase assays. Briefly, FAAH hydrolysis assays were conducted in triplicate with 100 μM substrate, 35 μg of rat transfected COS-7 cell protein for 5 minutes at 37° C. (except in the case of stearic amide, where due to low solubility, 20 μM substrate comparison to oleamide were conducted). Products were separated on TLC as described previously, scraped into scintillation fluid, and radioactivity was quantitated by scintillation counting. Substrate hydrolysis in the presence of equal amounts of untransfected COS-7 cell protein extract served as background control in all cases and was substracted from FAAH hydrolysis rates to give the data as presented below.
To further assess the substrate specificity spectrum of enyzmatic hydolytic activity of the recombinant expressed proteins of this invention, other ^14C-labeled fatty acid amides were synthesized as described in Section B6 and above for ^14C-oleamide, with the exception of anandamide as described.
Where indicated in the table the anandamide and oleamide hydrolysis rates are considered to be 100% of FAAH activity to which other fatty acid amide hydrolysis rates are compared.

neuroblastoma cells = settings: anandamide incubated with neuroblastoma cells; cited from earlier work
[3] = target: T2, FAAH activity of a rat brain membrane fraction (Rattus norvegicus, UniProt P97612); format: biochemical; settings: for inhibition of cis-9,10-octadecenoamide hydrolysis (lipid amidase) activity: 1 mM
T2 construct: Cis-9,10-octadecenoamide with rat brain membrane fraction +1 mM phenylmethylsulfonyl fluoride (PMSF); from tissue; host or cells: rat brain membrane fraction
T2 sequence (P97612 1-579): T1 sequence (P97612 1-579)
Description: In each case the enzymic reaction is performed is a separate reaction vessel and the product is spotted onto a TLC plate.

recombinant rat FAAH = target: T3, recombinant rat FAAH (Rattus norvegicus, UniProt P97612); test: oleamide hydrolase activity of rat FAAH-transfected COS-7 cell extract and its inhibition (TLC); format: biochemical; settings: versus untransfected and control transfected cells
T3 construct: expressed in transfected cells; host or cells: COS-7 cells, transient, pcDNA3; dounce-homogenised cell extract
T3 sequence (P97612 1-579): T1 sequence (P97612 1-579)
Description: The following thin layer chromatography (TLC) protocol is used for assaying cis-9,10 octadecenoamide hydrolysis activity, also referred to as fatty-acid amide hydrolase activity. Oleamide is first labeled with ^14C. To accomplish this, ^14C-Oleic acid (1-10 μM, Moravek Biochemicals, 5-50 μCi/μM) in CH2CL2 (200 μL, 0.005-0.05 M) at 0° C. was treated with excess oxalyl chloride and the reaction mixture was warmed to 25° C. for 6 hours. The reaction mixture was then concentrated under a constant stream of gaseous nitrogen and the remaining residue was cooled to 0° C. and treated with excess saturated aqueous ammonium hydroxide. After 5 minutes, the reaction mixture was partitioned between Et)Ac (1.5 mL) and 10% HCl (1.0 mL). The organic layer was then washed with water (1.0 mL) and concentrated under a constant stream of gaseous nitrogen to provide ^14C-oleamide in quantitative yield as judged by TLC (60% EtOAc in hexanes; oleamide Rf−0.2; oleic acid Rf−0.8). […]
While untransfected COS-7 cells contained negligible amounts of oleamide hydrolase activity, COS-7 cells transfected with the rat FAAH cDNA expressed high levels of oleamide hydrolase activity (FIG. 15A). The assay was performed as described in Section B where by TLC the conversion of oleamide to oleic acid was assessed. […]

For aprotinin, which “effect of other inhibitors on the amidase activity” value (shortened to “effect of other inhibitors”) [1] is on record?
Its value is “little or no effect”.

For CCCCCCCC/C=C\CCCCCCCCCCCC(N)=O [Compound 6, Erucamide], which “sleep-inducing pharmacological effect compared with cis-9,10-octadecenoamide” value (rats) is on record?
The value was “substantial reduction in both the degree and duration of the pharmacological effects”.

With CCCCCCCC/C=C\CCCCCCCC(=O)O [oleic acid, Oleic Acid] as the compound, how does the “sleep-inducing pharmacological effect compared with cis-9,10-octadecenoamide” value (rats) read?
Its value is “nor oleic acid (5) showed any overt behavioral effect”.

Which “duration of the biological (sleep-inducing) effect” value (rats; 10 mg per rat) does the source give for CCCCCCCC/C=C/CCCCCCCC(N)=O [Trans-9,10-octadecenoamide] here?
Its value is “one hour”.

And the “sleep-inducing pharmacological effect compared with cis-9,10-octadecenoamide” value (rats)?
Its value is “much less potent”.

With CCCCCC/C=C\CCCCCCCCCC(N)=O [Compound 4, Cis-11,12-octadecenoamide] as the compound, how does the “sleep-inducing pharmacological effect compared with cis-9,10-octadecenoamide” value (rats) read?
Its value is “substantial reduction in both the degree and duration of the pharmacological effects”.

For CCCCCCCCCCCCCCCCCC(N)=O [Stearic Amide, stearic amide], which “% of FAAH activity (oleamide hydrolysis rate = 100%)” value ([2]; 20 μM substrate) is on record?
Its value is 5.8%.

What about the “Rate of Hydrolysis” value ([2]; 20 μM substrate) of the same compound?
Its value is 2.3 ± 1 nmol/min/mg.

Which “increase of anandamide levels in the presence of the inhibitor” value (neuroblastoma cells) does the source give for arachidonyl trifluoromethyl ketone here?
The value was 5 fold.

With CC(C)CC(=O)N[C@H](C(=O)N[C@H](C(=O)N[C@@H](CC(C)C)[C@@H](O)CC(=O)N[C@@H](C)C(=O)N[C@@H](CC(C)C)[C@@H](O)CC(=O)O)C(C)C)C(C)C [pepstatin] (Isovaleryl-VV[Sta]A[Sta]-OH) as the compound, how does the “effect of other inhibitors” value [1] read?
The value was “little or no effect”.

For N=C(N)c1ccccc1 [benzamidine], which “effect of other inhibitors” value [1] is on record?
Its value is “little or no effect”.

With CCCCCCCCCCCCCCCC(N)=O [Palmitic Amide, palmitic amide] as the compound, how does the “% of FAAH activity (anandamide hydrolysis rate = 100%)” value ([2]; 100 μM substrate) read?
The value was 9.9%.

What about the “Rate of Hydrolysis” value ([2]; 100 μM substrate) of the same compound?
The value was 33 ± 2 nmol/min/mg.

For CCCCCCCCC/C=C\CCCCCCC(N)=O [Compound 3, Cis-8,9-octadecenoamide], which “sleep-inducing pharmacological effect compared with cis-9,10-octadecenoamide” value (rats) is on record?
Its value is “substantial reduction in both the degree and duration of the pharmacological effects”.

Which “effect of other inhibitors” value [1] does the source give for CC(=O)N[C@@H](CC(C)C)C(=O)N[C@@H](CC(C)C)C(=O)N[C@H](C=O)CCCNC(=N)N [leupeptin] here?
The value was “little or no effect”.

For [Cl][Hg][Cl] [HgCl2, mercuric chloride], which “inhibition of lipid amidase activity” value ([3]; 50 mM) is on record?
The value was “inhibited”.

Which results are given for CCCCCCCCCCCCCC(N)=O [Myristic Amide, myristic amide]?
% of FAAH activity (anandamide hydrolysis rate = 100%) ([2]; 100 μM substrate): 24.3%; Rate of Hydrolysis ([2]; 100 μM substrate): 81 ± 7 nmol/min/mg

What does the source list for CCCCC/C=C\C/C=C\C/C=C\C/C=C\CCCC(=O)NCCO [Anandamide, arachidonylethanolamide]?
conversion of labeled substrate by rat FAAH-transfected COS-7 cells (qualitative, TLC) (recombinant rat FAAH): high levels of anandamide hydrolase activity; % of FAAH activity (anandamide hydrolysis rate = 100%) ([2]; 100 μM substrate): 100%; Rate of Hydrolysis ([2]; 100 μM substrate): 333 ± 30 nmol/min/mg

Which results are given for O=S(=O)(F)Cc1ccccc1 [PMSF, phenylmethylsulfonyl fluoride]?
inhibition of cis-9,10-octadecenoamide hydrolysis (lipid amidase) activity [3]: inhibited; inhibition of cis-9,10-octadecenoamide hydrolysis (lipid amidase) activity ([3]; listed as phenylmethylsulfonyl fluoride): completely inhibited; inhibition of the amidase activity ([1]; 1.5 mM concentration): completely inhibited

Which “effect of other inhibitors” value [1] does the source give for CC(C)C[C@H](NC(=O)[C@@H](NC(=O)N[C@@H](Cc1ccccc1)C(=O)O)[C@@H]1CCN=C(N)N1)C(=O)N[C@H](C=O)Cc1ccccc1 [chymostatin] here?
The value was “little or no effect”.

— patent publication US6699682B2, “Assay for inhibitors of fatty-acid amide hydrolase” (The Scripps Research Institute, priority 1995, dated 2004)
